System: Mitochondria-located protein genes
Experiment: DNA chip mRNA expression in yeast, mitochondria-located protein genes (Table 2)
Format: cell-based, Saccharomyces cerevisiae S288C
Conditions: cells incubated two hours with the chemical substance
In short: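 S. cerevisiae S288C grown at 25° C. in YPD to log phase, then exposed 2 h to a toxicant at a growth-inhibiting, non-lethal concentration; untreated cells as control. Poly(A) mRNA reverse-transcribed with Cy3-dUTP or Cy5-dUTP, hybridized >12 h at 65° C. to whole-genome yeast DNA chip; value = fluorescence ratio treated/untreated.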

## Na2As [(1)]
Yeast gene YJR121W
  The level of expressed mRNA in the presence of chemical substance/The level of expressed mRNA in the absence of chemical substance: 0.9
Yeast gene YKL003C
  The level of expressed mRNA in the presence of chemical substance/The level of expressed mRNA in the absence of chemical substance: 1.1
Yeast gene YKL016C
  The level of expressed mRNA in the presence of chemical substance/The level of expressed mRNA in the absence of chemical substance: 1.5
Yeast gene YKL141W
  The level of expressed mRNA in the presence of chemical substance/The level of expressed mRNA in the absence of chemical substance: 1.6
Yeast gene YKL142W
  The level of expressed mRNA in the presence of chemical substance/The level of expressed mRNA in the absence of chemical substance: 1.8
Yeast gene YKL148C
  The level of expressed mRNA in the presence of chemical substance/The level of expressed mRNA in the absence of chemical substance: 0.9
Yeast gene YKL170W
  The level of expressed mRNA in the presence of chemical substance/The level of expressed mRNA in the absence of chemical substance: 1.0
Yeast gene YKL194C
  The level of expressed mRNA in the presence of chemical substance/The level of expressed mRNA in the absence of chemical substance: 0.9
Yeast gene YKR066C
  The level of expressed mRNA in the presence of chemical substance/The level of expressed mRNA in the absence of chemical substance: 0.9
Yeast gene YLL041C
  The level of expressed mRNA in the presence of chemical substance/The level of expressed mRNA in the absence of chemical substance: 1.1
Yeast gene YLR038C
  The level of expressed mRNA in the presence of chemical substance/The level of expressed mRNA in the absence of chemical substance: 2.3
Yeast gene YLR259C
  The level of expressed mRNA in the presence of chemical substance/The level of expressed mRNA in the absence of chemical substance: 0.7
Yeast gene YLR295C
  The level of expressed mRNA in the presence of chemical substance/The level of expressed mRNA in the absence of chemical substance: 1.4
Yeast gene YLR304C
  The level of expressed mRNA in the presence of chemical substance/The level of expressed mRNA in the absence of chemical substance: 0.7
Yeast gene YLR348C
  The level of expressed mRNA in the presence of chemical substance/The level of expressed mRNA in the absence of chemical substance: 1.1
Yeast gene YLR395C
  The level of expressed mRNA in the presence of chemical substance/The level of expressed mRNA in the absence of chemical substance: 1.8
Yeast gene YML054C
  The level of expressed mRNA in the presence of chemical substance/The level of expressed mRNA in the absence of chemical substance: 1.5
Yeast gene YML120C
  The level of expressed mRNA in the presence of chemical substance/The level of expressed mRNA in the absence of chemical substance: 1.1
Yeast gene YML129C
  The level of expressed mRNA in the presence of chemical substance/The level of expressed mRNA in the absence of chemical substance: 1.1
Yeast gene YMR023C
  The level of expressed mRNA in the presence of chemical substance/The level of expressed mRNA in the absence of chemical substance: 1.4
Yeast gene YMR035W
  The level of expressed mRNA in the presence of chemical substance/The level of expressed mRNA in the absence of chemical substance: 1.2
Yeast gene YMR083W
  The level of expressed mRNA in the presence of chemical substance/The level of expressed mRNA in the absence of chemical substance: 1.4
Yeast gene YMR089C
  The level of expressed mRNA in the presence of chemical substance/The level of expressed mRNA in the absence of chemical substance: 0.8
Yeast gene YMR152W
  The level of expressed mRNA in the presence of chemical substance/The level of expressed mRNA in the absence of chemical substance: 0.9
Yeast gene YMR203W
  The level of expressed mRNA in the presence of chemical substance/The level of expressed mRNA in the absence of chemical substance: 0.8
Yeast gene YMR267W
  The level of expressed mRNA in the presence of chemical substance/The level of expressed mRNA in the absence of chemical substance: 0.8
Yeast gene YNL055C
  The level of expressed mRNA in the presence of chemical substance/The level of expressed mRNA in the absence of chemical substance: 1.1
Yeast gene YNL071W
  The level of expressed mRNA in the presence of chemical substance/The level of expressed mRNA in the absence of chemical substance: 0.9
Yeast gene YNL073W
  The level of expressed mRNA in the presence of chemical substance/The level of expressed mRNA in the absence of chemical substance: 0.8
Yeast gene YNL104C
  The level of expressed mRNA in the presence of chemical substance/The level of expressed mRNA in the absence of chemical substance: 1.1
Yeast gene YNL256W
  The level of expressed mRNA in the presence of chemical substance/The level of expressed mRNA in the absence of chemical substance: 0.7
Yeast gene YOL096C
  The level of expressed mRNA in the presence of chemical substance/The level of expressed mRNA in the absence of chemical substance: 1.1
Yeast gene YOR020C
  The level of expressed mRNA in the presence of chemical substance/The level of expressed mRNA in the absence of chemical substance: 1.4
Yeast gene YOR037W
  The level of expressed mRNA in the presence of chemical substance/The level of expressed mRNA in the absence of chemical substance: 1.0
Yeast gene YOR100C
  The level of expressed mRNA in the presence of chemical substance/The level of expressed mRNA in the absence of chemical substance: 1.3
Yeast gene YOR130C
  The level of expressed mRNA in the presence of chemical substance/The level of expressed mRNA in the absence of chemical substance: 0.8
Yeast gene YOR142W
  The level of expressed mRNA in the presence of chemical substance/The level of expressed mRNA in the absence of chemical substance: 1.0
Yeast gene YOR150W
  The level of expressed mRNA in the presence of chemical substance/The level of expressed mRNA in the absence of chemical substance: 1.7
Yeast gene YOR176W
  The level of expressed mRNA in the presence of chemical substance/The level of expressed mRNA in the absence of chemical substance: 0.7
Yeast gene YOR187W
  The level of expressed mRNA in the presence of chemical substance/The level of expressed mRNA in the absence of chemical substance: 1.0
Yeast gene YOR316C
  The level of expressed mRNA in the presence of chemical substance/The level of expressed mRNA in the absence of chemical substance: 0.7
Yeast gene YPL040C
  The level of expressed mRNA in the presence of chemical substance/The level of expressed mRNA in the absence of chemical substance: 1.1
Yeast gene YPL134C
  The level of expressed mRNA in the presence of chemical substance/The level of expressed mRNA in the absence of chemical substance: 1.5
Yeast gene YPL135W
  The level of expressed mRNA in the presence of chemical substance/The level of expressed mRNA in the absence of chemical substance: 0.9
Yeast gene YPL215W
  The level of expressed mRNA in the presence of chemical substance/The level of expressed mRNA in the absence of chemical substance: 1.1
Yeast gene YPL262W
  The level of expressed mRNA in the presence of chemical substance/The level of expressed mRNA in the absence of chemical substance: 1.0
Yeast gene YPR024W
  The level of expressed mRNA in the presence of chemical substance/The level of expressed mRNA in the absence of chemical substance: 0.7
Yeast gene YPR037C
  The level of expressed mRNA in the presence of chemical substance/The level of expressed mRNA in the absence of chemical substance: 1.2
Yeast gene YPR047W
  The level of expressed mRNA in the presence of chemical substance/The level of expressed mRNA in the absence of chemical substance: 1.0
Yeast gene YPR134W
  The level of expressed mRNA in the presence of chemical substance/The level of expressed mRNA in the absence of chemical substance: 1.1

Source: US8192962B2, “Processes for detecting toxic substances” (Daikin Industries, Ltd., priority 2001, dated 2012)
